ChEMBL document CHEMBL2074438, “Influence of omeprazole on multidrug resistance protein 3 expression in human liver” (J Pharmacol Exp Ther, 2003)

Experiments:
[1] = biological target: Multidrug resistance associated protein (Homo sapiens) (UniProt Q96QA9); assay: TP_TRANSPORTER: Western blot, HepG2 cells; assay type: functional, cell-based
[2] = biological target: Multidrug resistance associated protein (Homo sapiens) (UniProt Q96QA9); assay: TP_TRANSPORTER: RT-PCR in HepG2 cells; assay type: functional, cell-based

Chain of Multidrug resistance associated protein (Homo sapiens) (Q96QA9 as listed by the source): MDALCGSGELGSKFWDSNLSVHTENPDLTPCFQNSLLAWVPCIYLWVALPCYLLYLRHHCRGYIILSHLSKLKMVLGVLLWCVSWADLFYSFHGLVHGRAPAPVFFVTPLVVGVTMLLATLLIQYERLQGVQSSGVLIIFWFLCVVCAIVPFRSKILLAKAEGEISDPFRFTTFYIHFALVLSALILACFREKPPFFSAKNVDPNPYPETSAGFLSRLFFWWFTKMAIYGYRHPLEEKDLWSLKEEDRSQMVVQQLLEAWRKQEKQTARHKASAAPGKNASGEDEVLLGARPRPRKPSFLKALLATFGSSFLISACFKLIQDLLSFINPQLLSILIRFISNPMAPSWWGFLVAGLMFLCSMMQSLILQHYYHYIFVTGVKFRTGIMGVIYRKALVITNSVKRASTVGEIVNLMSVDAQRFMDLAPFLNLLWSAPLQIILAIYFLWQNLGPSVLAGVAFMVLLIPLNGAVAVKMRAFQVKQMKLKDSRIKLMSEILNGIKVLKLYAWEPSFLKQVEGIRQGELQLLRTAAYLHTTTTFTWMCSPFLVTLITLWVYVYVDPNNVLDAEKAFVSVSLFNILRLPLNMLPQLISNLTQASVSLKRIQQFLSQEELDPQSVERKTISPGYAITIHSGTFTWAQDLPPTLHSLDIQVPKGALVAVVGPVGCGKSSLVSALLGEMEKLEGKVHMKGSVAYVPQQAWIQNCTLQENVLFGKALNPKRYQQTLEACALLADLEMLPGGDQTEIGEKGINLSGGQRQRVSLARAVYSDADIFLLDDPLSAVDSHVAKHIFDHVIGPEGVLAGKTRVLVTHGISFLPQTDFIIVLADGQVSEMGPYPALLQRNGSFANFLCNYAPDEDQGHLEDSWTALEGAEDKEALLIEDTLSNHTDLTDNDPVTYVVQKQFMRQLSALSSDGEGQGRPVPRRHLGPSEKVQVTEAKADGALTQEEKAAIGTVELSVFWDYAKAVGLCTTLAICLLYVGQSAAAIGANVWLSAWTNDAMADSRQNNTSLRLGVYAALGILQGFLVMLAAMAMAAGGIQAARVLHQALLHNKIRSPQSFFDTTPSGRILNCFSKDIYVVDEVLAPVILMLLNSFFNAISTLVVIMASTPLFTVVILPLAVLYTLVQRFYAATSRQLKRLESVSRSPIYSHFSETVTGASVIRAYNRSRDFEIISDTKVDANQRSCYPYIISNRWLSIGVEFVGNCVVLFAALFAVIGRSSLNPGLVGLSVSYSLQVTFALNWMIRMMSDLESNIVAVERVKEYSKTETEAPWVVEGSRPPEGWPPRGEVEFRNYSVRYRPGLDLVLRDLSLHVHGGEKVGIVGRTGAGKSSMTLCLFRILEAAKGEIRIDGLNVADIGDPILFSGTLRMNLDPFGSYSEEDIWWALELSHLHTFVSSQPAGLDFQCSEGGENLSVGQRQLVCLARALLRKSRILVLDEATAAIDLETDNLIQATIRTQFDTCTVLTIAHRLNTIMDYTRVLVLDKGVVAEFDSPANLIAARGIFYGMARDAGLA

O=c1cc(-c2ccccc2)oc2ccc3ccccc3c12
Activity [1]: inducer [] | Activity [2]: inducer []

COc1ccc2[nH]c([S+]([O-])Cc3ncc(C)c(OC)c3C)nc2c1 (centres undefined)
Activity [1]: inducer [] | Activity [2]: inducer []
